The source of these data is paper PMC3530924 (Bioorganic & medicinal chemistry, 2010).

The target in assay [1] is T1, CT-L activity of purified rabbit 20S proteasome (Oryctolagus cuniculus, UniProt G1SU71+G1T4Q9).
T1 sequence (G1T4Q9 60-263): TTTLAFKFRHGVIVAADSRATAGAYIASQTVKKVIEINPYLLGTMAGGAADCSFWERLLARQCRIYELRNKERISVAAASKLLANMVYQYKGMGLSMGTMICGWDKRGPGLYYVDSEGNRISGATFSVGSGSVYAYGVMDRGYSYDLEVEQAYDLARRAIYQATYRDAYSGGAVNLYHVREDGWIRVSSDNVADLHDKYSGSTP
T1 sequence (G1SU71 29-241): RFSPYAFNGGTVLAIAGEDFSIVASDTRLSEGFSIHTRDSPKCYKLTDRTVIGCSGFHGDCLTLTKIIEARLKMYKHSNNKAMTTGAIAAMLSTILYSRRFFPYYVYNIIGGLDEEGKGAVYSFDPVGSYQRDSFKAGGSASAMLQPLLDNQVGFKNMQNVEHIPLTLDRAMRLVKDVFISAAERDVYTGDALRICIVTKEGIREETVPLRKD
Kind of assay: Fluorometric assay of CT-L proteolytic activity of purified 20S proteasome. The class given is biochemical.

The test system of assay [2] is CT-L activity of rabbit 20S proteasome. The assay can be described thus: Dialysis. The class given is biochemical. The settings on record: compounds 10 µM; for inhibition of CT-L activity of the 20S proteasome in the absence of dialysis: 3 nM rabbit 20S proteasome, 30 min pre-incubation, no dialysis; for time of dialysis at which CT-L activity started to recover: dialysis at 4 °C against assay buffer.

The next assay deals with MCF-7 cells. The settings on record: read-out: IC50 cell viability; cited from earlier work.
The subject of assay [3] is human breast and lung tumors implanted as xenografts. Conditions: nude mice; cited from earlier work.
Another assay relates to purified Calpain. The assay can be described thus: Inhibition of purified Calpain. The class given is biochemical. Conditions: read-out: IC50 purified Calpain; data not reported in the paper.
In assay [4] the test system is cancer cell lines derived from prostate, lung and multiple myeloma. Conditions: cited from earlier work.
In assay [5] the test system is primary cells derived from patients with multiple myeloma. Conditions: cited from earlier work.
The mark [6] stands for this setting: read-out: In vitro IC50 CT-L activity, purified rabbit 20S proteasome, Suc-Leu-Leu-Val-Tyr-AMC, 1 hour at 37 °C, pH 7.6, tested in triplicate at least twice.

Like-named read-outs stand apart in the source and are kept apart here.

With “4-(6-amino-3-chloro-1,4-dioxo-1,4-dihydronaphthalen-2-ylamino)-N- (pyridin-2-yl)benzenesulfonamide and 4-(7-amino-3-chloro-1,4-dioxo-1,4-dihydronaphthalen-2-ylamino)- N-(pyridin-2-yl)benzenesulfonamide [Compound 8]”, the “inhibitory activity in the in vitro enzymatic assay” value in assay [1] (CT-L, mixtures of isomers) is “did not lead to any appreciable inhibitory activities”.
For orientation: IC50 means the concentration at which inhibition is half-maximal. Turning to `O=C1C=CC(=O)c2ccccc21` [1,4-naphthoquinone], in assay [1], the concentration for half-maximal inhibition (IC50) is greater than 100 µM.
`O=C1C(Cl)=C(Cl)C(=O)c2ccccc21` [2,3-dichloronaphthoquinone]: the concentration for half-maximal inhibition (IC50) in assay [1] (setting [6]) was greater than 100 µM.
Turning to `CC1=CC(=O)c2ccccc2C1=O` [2-methyl-1,4-naphthoquinone], the IC50 in assay [1] was greater than 100 µM.
In the case of `CC(C)C[C@H](NC(=O)[C@H](Cc1ccccc1)NC(=O)c1cnccn1)B(O)O` [Bortezomib, reference compound], in assay [2], the “inhibition of CT-L activity of the 20S proteasome in the absence of dialysis” value is 99% and the “time of dialysis at which CT-L activity started to recover” value worked out at 4 h.
In turn, `COc1cnc(NS(=O)(=O)c2ccc(NC3=C(Cl)C(=O)c4ccccc4C3=O)cc2)nc1` [Compound 2e, 4-(3-Chloro-1,4-dioxo-1,4-dihydronaphthalen-2-ylamino)-N-(5-methoxypyrimidin-2-yl)benzenesulfonamide] yielded a half-inhibitory concentration (IC50) in assay [1] of 100 µM.
Take `COc1cc(NS(=O)(=O)c2ccc(NC3=C(Cl)C(=O)c4ccccc4C3=O)cc2)nc(OC)n1` [Compound 2i, 4-(3-Chloro-1,4-dioxo-1,4-dihydronaphthalen-2-ylamino)-N-(2,6-dimethoxypyrimidin-4-yl)-benzenesulfonamide]: the IC50 in assay [1] worked out at 100 µM.
For `CC1=C(Nc2ccc(S(=O)(=O)Nc3ccccn3)cc2)C(=O)c2ccccc2C1=O` [Compound 2k, 4-(3-Methyl-1,4-dioxo-1,4-dihydronaphthalen-2-ylamino)-N-(pyridin-2-yl)benzenesulfonamide], the half-inhibitory concentration (IC50) in assay [1] is greater than 100 µM.
On to `CC1=C(Nc2ccc(S(=O)(=O)NC(=O)c3ccccc3)cc2)C(=O)c2ccccc2C1=O` [Compound 2l, N-(4-(3-methyl-1,4-dioxo-1,4-dihydronaphthalen-2-ylamino)phenylsulfonyl) benzamide], for which, in assay [1], the concentration for half-maximal inhibition (IC50) is greater than 100 µM.
Still for that read-out and setting: the figure for `COc1cnc(NS(=O)(=O)c2ccc(NC3=C(C)C(=O)c4ccccc4C3=O)cc2)nc1` [Compound 2m, N-(5-methoxypyrimidin-2-yl)-4-(3-methyl-1,4-dioxo-1,4-dihydronaphthalen-2-ylamino)-benzenesulfonamide] is greater than 100 µM.
Still for that read-out and setting: the figure for `O=C(NS(=O)(=O)c1ccc(NC2=CC(=O)c3ccccc3C2=O)cc1)c1ccccc1` [Compound 2p, N-(4-(1,4-dioxo-1,4-dihydronaphthalen-2-ylamino)phenylsulfonyl)benzamide] is greater than 100 µM.
Same read-out and setting: the same measure for `Cc1cc(NS(=O)(=O)c2ccc(NC3=CC(=O)c4ccccc4C3=O)cc2)no1` [Compound 2q, 4-(1,4-Dioxo-1,4-dihydronaphthalen-2-ylamino)-N-(5-methylisoxazol-3-yl)benzenesulfonamide]: greater than 100 µM; for `O=C1C=C(Nc2ccc(S(=O)(=O)Nc3ccccn3)cc2)C(=O)c2ccccc21` [Compound 2r, 4-(1,4-Dioxo-1,4-dihydronaphthalen-2-ylamino)-N-(pyridin-2-yl)benzenesulfonamide]: greater than 100 µM.
As for `NS(=O)(=O)c1ccc(NC2=C(Cl)C(=O)c3ccccc3C2=O)cc1` [Compound 2t, 4-(3-Chloro-1,4-dioxo-1,4-dihydronaphthalen-2-ylamino)benzenesulfonamide], the 50% inhibitory concentration (IC50) in assay [1] is greater than 100 µM.
Still for that read-out and setting: the same measure for `O=C1C(Cl)=C(Nc2ccc(S(=O)(=O)Nc3ccc(Cl)cc3)cc2)C(=O)c2ccccc21` [Compound 2u, 4-(3-Chloro-1,4-dioxo-1,4-dihydronaphthalen-2-ylamino)-N-(4-chlorophenyl)benzenesulfonamide]: greater than 100 µM; for `O=C1C(Cl)=C(Nc2ccc(S(=O)(=O)Nc3ccc(F)cc3F)cc2)C(=O)c2ccccc21` [Compound 2v, 4-(3-Chloro-1,4-dioxo-1,4-dihydronaphthalen-2-ylamino)-N-(2,4-difluorophenyl)benzenesulfonamide]: greater than 100 µM.
Same read-out and setting: the figure for `O=C1C(Cl)=C(Nc2ccc(S(=O)(=O)Nc3ccc(Cl)cc3Cl)cc2)C(=O)c2ccccc21` [Compound 2w, 4-(3-Chloro-1,4-dioxo-1,4-dihydronaphthalen-2-ylamino)-N-(2,4-dichlorophenyl)benzenesulfonamide] is greater than 100 µM.
`CN(C1=C(Cl)C(=O)c2ccccc2C1=O)c1ccc(S(=O)(=O)Nc2ccccn2)cc1` [Compound 6a, 4-((3-Chloro-1,4-dioxo-1,4-dihydronaphthalen-2-yl)(methyl)amino)-N-(pyridin-2-yl) benzenesulfonamide]: the concentration for half-maximal inhibition (IC50) in assay [1] (setting [6]) is greater than 100 µM.
As to `CCN(C1=C(Cl)C(=O)c2ccccc2C1=O)c1ccc(S(=O)(=O)Nc2ccccn2)cc1` [Compound 6b, 4-((3-Chloro-1,4-dioxo-1,4-dihydronaphthalen-2-yl)(ethyl)amino)-N-(pyridin-2-yl) benzenesulfonamide], in assay [1] (setting [6]), the IC50 was greater than 100 µM.
As for `O=C1C(Cl)=C(N(Cc2ccccc2)c2ccc(S(=O)(=O)Nc3ccccn3)cc2)C(=O)c2ccccc21` [Compound 6c, 4-(Benzyl(3-chloro-1,4-dioxo-1,4-dihydronaphthalen-2-yl)amino)-N-(pyridin-2-yl) benzenesulfonamide], in assay [1] (setting [6]), the IC50 was greater than 100 µM.
In assay [1], `O=C1C(Cl)=C(N(Cc2ccc([N+](=O)[O-])cc2)c2ccc(S(=O)(=O)Nc3ccccn3)cc2)C(=O)c2ccccc21` [Compound 6d, 4-((3-Chloro-1,4-dioxo-1,4-dihydronaphthalen-2-yl)(4-nitrobenzyl)amino)-N-(pyridin-2-yl)benzenesulfonamide] gave an IC50 greater than 100 µM.
As to `O=C1C(Cl)=C(N(Cc2ccc3ccccc3c2)c2ccc(S(=O)(=O)Nc3ccccn3)cc2)C(=O)c2ccccc21` [Compound 6e, 4-((3-Chloro-1,4-dioxo-1,4-dihydronaphthalen-2-yl)(naphthalen-2-ylmethyl)amino)-N-(pyridin-2-yl)benzenesulfonamide], the IC50 in assay [1] was greater than 100 µM.
Still for that read-out and setting: the figure for `Cc1ccc(CN(C2=C(Cl)C(=O)c3ccccc3C2=O)c2ccc(S(=O)(=O)Nc3ccccn3)cc2)cc1` [Compound 6f, 4-((3-Chloro-1,4-dioxo-1,4-dihydronaphthalen-2-yl)(4-methylbenzyl)amino)-N-(pyridin-2-yl)benzenesulfonamide] is greater than 100 µM; for `O=C1C(Cl)=C(N(Cc2ccc(C(F)(F)F)cc2)c2ccc(S(=O)(=O)Nc3ccccn3)cc2)C(=O)c2ccccc21` [Compound 6g, 4-((3-Chloro-1,4-dioxo-1,4-dihydronaphthalen-2-yl)(4-(trifluoromethyl)benzyl)amino)-N-(pyridin-2-yl)benzenesulfonamide] it is greater than 100 µM.
`O=C1C(Cl)=C(Nc2ccc(S(=O)(=O)Nc3ccccn3)cc2)C(=O)c2ccccc21` [PI-083, 4-(3-Chloro-1,4-dioxo-1,4-dihydronaphthalen-2-ylamino)-N-(pyridin-2-yl)benzenesulfonamide]: the “inhibition of CT-L activity of the 20S proteasome in the absence of dialysis” value in assay [2] is 88%. In assay [2], the “time of dialysis at which CT-L activity started to recover” value was determined as 1 h. Moreover, the IC50 with MCF-7 cells is 2.31 ± 0.1 µM; in the assay on purified Calpain it was greater than 30 µM. Further, the “growth of human breast and lung tumor xenografts” value in assay [3] was “suppresses the growth”. Also, the “apoptosis in cancer cell lines” value in assay [4] is reported as “induces apoptosis”. The “proliferation and survival of primary cells” value in assay [5] was “efficient in inhibiting proliferation and survival”.
`Nc1ccc(S(=O)(=O)Nc2ccccn2)cc1` [sulfapyridine] had an IC50 in assay [1] greater than 100 µM.
